What was measured:
stem cells = assay: tritiated thymidine labeling of stem cells (murine skin explants; label retaining cells in mice); format: cell-based, mouse
Excerpt: The effectiveness of stimulant of stem cells can be readily evaluated using the technique of tritiated thymidine labeling. We studied the effectiveness of the invention on stimulation of stem cell populations by using the technique of tritiated thymidine labeling of stem cells. The effects of compositions described here were studied on explants of murine skin. Explant cultures were serially harvested at daily intervals for the first 4 days of exposure, and composition effects on ^3H-TdR (tritiated thymidine) incorporation assessed in accordance with standard techniques. Because of the slow- cycling nature of stem cells, repeated administration of tritiated thymidine is necessary. After the labeling, the cells are chased for four weeks wherein the stem cells retain the label longer and are thus quantitated comparatively to control.
In another series of experiments, a cohort of mice was continuously labeled for 2 weeks with ^3H- TdR and then allowed to rest for 4 weeks. Once labeled, cells that cycle slowly retained isotopes for an extended period of time. Twice daily, subcutaneous injections of ^3H-TdR were given to newborn mice over the first seven days of life resulting in the labeling of almost 100% of nuclei in mouse epidermis, hair follicles, sebaceous glands, fibroblasts, and endothelial cells. […]

[1] = test system: hair growth on scalp of subjects with baldness / hair loss; assay: compositions tested in humans (topical application to scalp); format: in vivo, human; conditions: summary statement; animals and humans / applied directly to scalp
Method: The composition is applied to scalp ideally after thoroughly cleansing hair with soap and water to remove as much sebaceous secretions as possible. Sufficient quantity of the composition is applied to balding areas of scalp repeatedly, 1-2 times per day and applications continued for several days or weeks. It may be necessary, as it has been observed, to repeat the application frequently to keep the new follicular growth and to initiate further growth.
Finally, the compositions were tested in humans. Ten subjects with advanced male pattern baldness used test preparation #1 and #2 (five subjects each) as described above for a period of three weeks. […] Three female subjects with thinning hair used composition #3 and #4 for a period of five weeks daily.

CC[C@H](CC[C@@H](C)[C@H]1CC[C@H]2[C@@H]3CC=C4C[C@@H](O)CC[C@]4(C)[C@H]3CC[C@]12C)C(C)C [β-sitosterol]
activity of stem cells and/or bulge cells responsible for growth of hair (stem cells): significantly enhances
growth of hair [1]: enhance growth of hair

From patent US20020183297A1, “Pharmaceutical composition for the treatment of alopecia” (priority 2001, published 2002)
